Structures are written as SMILES.

Take `Cc1ccc(-c2ccc(C(=O)Nc3ccc4nc(CN5CCCC5)ccc4c3)cn2)cc1` [Example 46, 6-(4-Methylphenyl)-N-[2-(1-pyrrolidinylmethyl)-6-quinolinyl]nicotinamide]: the melting point (in general, the temperature of the solid-liquid transition) is 207 to 209 °C.
With `O=C(Nc1ccc2nc(CN3CCCC3)ccc2c1)C1CCN(c2ccc(Cl)cc2)CC1` [Example 52, 1-(4-Chlorophenyl)-N-[2-(1-pyrrolidinylmethyl)-6-quinolinyl]-4-piperidinecarboxamide], the melting point was 204 to 206 °C.
With `O=C(Nc1ccc2nc(CN3CCCCC3)ccc2c1)c1ccc(-c2ccccc2)cc1` [Example 54, N-[2-(1-Piperidinylmethyl)-6-quinolinyl][1,1′-biphenyl]-4-carboxamide] the figure was 186 to 188 °C; with `Cc1ccc(-c2ccc(C(=O)Nc3ccc4nc(CN5CCCCC5)ccc4c3)cc2)cc1` [Example 55, 4′-Methyl-N-[2-(1-piperidinylmethyl)-6-quinolinyl][1,1′-biphenyl]-4-carboxamide], 198 to 200 °C; with `COc1ccc(-c2ccc(C(=O)Nc3ccc4nc(CN5CCCCC5)ccc4c3)cc2)cc1` [Example 56, 4′-Methoxy-N-[2-(1-piperidinylmethyl)-6-quinolinyl][1,1′-biphenyl]-4-carboxamide], 192 to 194 °C.
On to `O=C(Nc1ccc2nc(CN3CCCCC3)ccc2c1)c1ccc(-c2ccc(Cl)cc2)nc1` [Example 57, 6-(4-Chlorophenyl)-N-[2-(1-piperidinylmethyl)-6-quinolinyl]nicotinamide], for which the melting point was 215 to 218 °C (dec.).
As for `Cc1ccc(-c2ccc(C(=O)Nc3ccc4nc(CN5CCCCC5)ccc4c3)cn2)cc1` [Example 58, 6-(4-Methylphenyl)-N-[2-(1-piperidinylmethyl)-6-quinolinyl]nicotinamide], the melting point is 206 to 207 °C (dec.).
With `O=C(Nc1ccc2nc(CN3CCCCC3)ccc2c1)c1ccc(-c2ccc(F)cc2)nc1` [Example 59, 6-(4-Fluorophenyl)-N-[2-(1-piperidinylmethyl)-6-quinolinyl]nicotinamide], the melting point is 209 to 210 °C (dec.).
To `COc1ccc(-c2ccc(C(=O)Nc3ccc4nc(CN5CCCCC5)ccc4c3)cn2)cc1` [Example 60, 6-(4-Methoxyphenyl)-N-[2-(1-piperidinylmethyl)-6-quinolinyl]nicotinamide] belongs 210 to 211 °C (dec.); to `Cc1ccc(-c2ccc(C(=O)Nc3ccc4nc(CN5CCCC5)ccc4c3)cc2)cc1` [Example 61, 4′-Methyl-N-[2-(1-pyrrolidinylmethyl)-6-quinolinyl][1,1′-biphenyl]-4-carboxamide], 192 to 193 °C; to `COc1ccc(-c2ccc(C(=O)Nc3ccc4nc(CN5CCCC5)ccc4c3)cc2)cc1` [Example 62, 4′-Methoxy-N-[2-(1-pyrrolidinylmethyl)-6-quinolinyl][1,1′-biphenyl]-4-carboxamide], 197 to 199 °C.
With `O=C(Nc1ccc2nc(CN3CCCCC3)ccc2c1)N1CCC(c2ccc(Cl)cc2)CC1` [Example 63, 4-(4-Chlorophenyl)-N-[2-(1-piperidinylmethyl)-6-quinolinyl]-1-piperidinecarboxamide], the melting point was 214 to 217 °C (dec.).
As to `Cc1ccc(C2CCN(C(=O)Nc3ccc4nc(CN5CCCCC5)ccc4c3)CC2)cc1` [Example 64, 4-(4-Methylphenyl)-N-[2-(1-piperidinylmethyl)-6-quinolinyl]-1-piperidinecarboxamide], the melting point is 204 to 205 °C (dec.).
As to `O=C(Nc1ccc2nc(CN3CCCCC3)ccc2c1)N1CCC(c2ccc(F)cc2)CC1` [Example 65, 4-(4-Fluorophenyl)-N-[2-(1-piperidinylmethyl)-6-quinolinyl]-1-piperidinecarboxamide], the melting point is 203 to 204 °C (dec.).
In turn, `O=C(Nc1ccc2nc(CN3CCCCC3)ccc2c1)c1ccc(-c2ccc(F)cc2F)nc1` [Example 69, 6-(2,4-Difluorophenyl)-N-[2-(1-piperidinylmethyl)-6-quinolinyl]nicotinamide] gave a melting point of 182 to 183 °C.
In turn, `CC1(C)CCCC(C)(C)N1Cc1ccc2cc(NC(=O)c3ccc(-c4ccc(Cl)cc4)nc3)ccc2n1` [Example 72, 6-(4-Chlorophenyl)-N-[2-[(2,2,6,6-tetramethyl-1-piperidinyl)methyl]-6-quinolinyl]nicotinamide] showed a melting point of 258 to 259 °C.
Take `Cc1ccc(-c2ccc(C(=O)Nc3ccc4nc(CN5C(C)(C)CCCC5(C)C)ccc4c3)cn2)cc1` [Example 73, 6-(4-Methylphenyl)-N-[2-[(2,2,6,6-tetramethyl-1-piperidinyl)methyl]-6-quinolinyl]nicotinamide]: the melting point is 246 to 247 °C.
For `CC1(C)CCCC(C)(C)N1Cc1ccc2cc(NC(=O)N3CCC(c4ccc(Cl)cc4)CC3)ccc2n1` [Example 74, 4-(4-Chlorophenyl)-N-[2-[(2,2,6,6-tetramethyl-1-piperidinyl)methyl]-6-quinolinyl]-1-piperidinecarboxamide], the melting point fell in the range of 203 to 204 °C.
Consider `Cc1ccc(C2CCN(C(=O)Nc3ccc4nc(CN5C(C)(C)CCCC5(C)C)ccc4c3)CC2)cc1` [Example 75, 4-(4-Methylphenyl)-N-[2-[(2,2,6,6-tetramethyl-1-piperidinyl)methyl]-6-quinolinyl]-1-piperidinecarboxamide], for which the melting point is 200 to 202 °C.
In turn, `C[C@@H]1CCC[C@H](C)N1Cc1ccc2cc(NC(=O)c3ccc(-c4ccc(F)cc4)cc3)ccc2n1` [Example 79, 4′-Fluoro-N-[2-[(cis-2,6-dimethyl-1-piperidinyl)methyl]-6-quinolinyl][1,1′-biphenyl]-4-carboxamide] gave a melting point of 187 to 188 °C.
In the case of `C[C@@H]1CCC[C@H](C)N1Cc1ccc2cc(NC(=O)c3ccc(-c4ccccc4)cc3)ccc2n1` [Example 80, N-[2-[(cis-2,6-Dimethyl-1-piperidinyl)methyl]-6-quinolinyl][1,1′-biphenyl]-4-carboxamide], the melting point was in the range of 180 to 181 °C.
To `Cc1ccc(-c2ccc(C(=O)Nc3ccc4nc(CN5[C@H](C)CCC[C@@H]5C)ccc4c3)cc2)cc1` [Example 81, 4′-Methyl-N-[2-[(cis-2,6-dimethyl-1-piperidinyl)methyl]-6-quinolinyl][1,1′-biphenyl]-4-carboxamide] belongs 198 to 199 °C (dec.); to `C[C@@H]1CCC[C@H](C)N1Cc1ccc2cc(NC(=O)c3ccc(-c4ccc(Cl)cc4)nc3)ccc2n1` [Example 83, 6-(4-Chlorophenyl)-N-[2-[(cis-2,6-dimethyl-1-piperidinyl)methyl]-6-quinolinyl]nicotinamide], 217 to 219 °C (dec.).
For the compound `Cc1ccc(C2CCN(C(=O)Nc3ccc4nc(CN5[C@H](C)CCC[C@@H]5C)ccc4c3)CC2)cc1` [Example 86, 4-(4-Methylphenyl)-N-[2-[(cis-2,6-dimethyl-1-piperidinyl)methyl]-6-quinolinyl]-1-piperidinecarboxamide], the melting point was 177 to 178 °C (dec.).
As for `CC1=NCCN1Cc1ccc2cc(NC(=O)c3ccc(-c4ccccc4)cc3)ccc2n1` [Example 93, N-[2-[(2-Methyl-4,5-dihydro-1H-imidazol-1-yl)methyl]-6-quinolinyl][1,1′-biphenyl]-4-carboxamide], the melting point was 212 to 220 °C (dec.).

(Values after patent publication US6930185B2, “Melanin-concentrating hormone antagonist” (Takeda Chemical Industries, Ltd., priority 2000, dated 2005).)
